Laboratory results reported in patent publication US4452793A, “29-Fluorophytosterol termiticides, compositions and methods of use therefor” (The Research Foundation of State University of New York, priority 1983, dated 1984).
≈ marks a conversion by molar mass, not a printed value.

Columns and labels:
[1] = system: Manduca sexta; assay: Sterol distribution in experimental hornworms (capillary GC of gut-purged prepupae); type: in vivo, tobacco hornworm (Manduca sexta); settings: fed at 50 ppm in diet; mean relative area % of GC, 4 hornworms, S.D. in parentheses
Procedure: (§1) The recrystallized 29-fluorosterols are dissolved in dichloromethane and then coated onto the wheat germ to give a final concentration to 50 ppm (w/v) in the articifical diet. Controls receive either 50 ppm of stigmasterol or no additional sterols. The dose are varied in subsequent experiments. Twenty first instar tobacco hornworms larvae (Manduca sexta, seventh day after egg collection) are then placed on a 0.5-g slab of diet in a 1-oz dish; this is designated as Day 0 of feeding. Larvae were maintained at 65% relative humidity and 26° C. on a 17L/7D long day light regime. Diets are changed and larvae are weighed and staged daily. The mean survival, weight gain, and developmental periods of the experimental hornworms are shown relative to a group of twenty control larvae in FIG. 1.
Four gut-purged prepupae from each experiment are frozen and later are analyzed individually for sterol composition. Each hornworm is homogenized (1:1 chloroform-methanol), the lipids is saponified, and the non-saponifiable lipis are chromatographed to give the sterol fraction. Analysis by capillary GC (Durabon DB-5 or DB-1701) allowed resolution an accurate quantification of cholesterol, desmosterol, campesterol, stiosterol and fucosterol from test insects. The results, present in Table 1, illustrate the insect metabolism.

[2] = system: Manduca sexta; assay: Insecticide bioassay of 29-fluorophytosterols in tobacco hornworm larvae (artificial diet); type: in vivo, tobacco hornworm (Manduca sexta); settings: for LC50: Manduca sexta, po, 504 h, day 21, read-out: Dose for 50% reduction, survival (larvae, day 21) (LC50); for LC50 / Dose for 50% reduction, maximum larval weight (EC50) / Dose for 50% reduction, pupation (EC50): parts per million (w/v) in the final diet
Procedure: as §1
Inequality signs indicate that the effect indicated was beyond the range of doses tested and could not be reliably obtained by extrapolation of the log concentration vs. probit response plots. All values are reported as parts per million (w/v) in the final diet.

With `CC(C)[C@@H](CCF)CC[C@@H](C)[C@H]1CC[C@H]2[C@@H]3CC=C4C[C@@H](O)CC[C@]4(C)[C@H]3CC[C@]12C` [29-fluoroclionosterol] the “Relative percent sterol: campesterol” value [1] was 9.5(1) %, the “Relative percent sterol: cholesterol” value [1] was 82.5(2) % and the “Relative percent sterol: desmosterol” value [1] was 2.0(2) %. The “Relative percent sterol: sitosterol” value [1] was 5.9(1) %.

In the case of `CC(C)/C(=C/CF)CC[C@@H](C)[C@H]1CC[C@H]2[C@@H]3CC=C4C[C@@H](O)CC[C@]4(C)[C@H]3CC[C@]12C` [29-fluorofucosterol], the “Relative percent sterol: campesterol” value [1] was 10.0(2) %, the “Relative percent sterol: cholesterol” value [1] was 82.2(2) % and the “Relative percent sterol: desmosterol” value [1] was 1.0(1) %. For the same compound, the “Relative percent sterol: sitosterol” value [1] was 5.8(2) %, the LC50 [2] was 48 µg/mL (≈ 111 µM) and the “Dose for 50% reduction, maximum larval weight (EC50)” value [2] was 26 ppm. For the same compound, the “Dose for 50% reduction, pupation (EC50)” value [2] was 31 ppm.

With `CC(C)[C@H](/C=C/[C@@H](C)[C@H]1CC[C@H]2[C@@H]3CC=C4C[C@@H](O)CC[C@]4(C)[C@H]3CC[C@]12C)CCF` [29-fluoroporiferasterol] the “Relative percent sterol: campesterol” value [1] was 16.3(2) %, the “Relative percent sterol: cholesterol” value [1] was 65.6(8) % and the “Relative percent sterol: desmosterol” value [1] was 5.8(2) %. The “Relative percent sterol: sitosterol” value [1] was 12.3(5) %.

With `CC(C)[C@H](CCF)CC[C@@H](C)[C@H]1CC[C@H]2[C@@H]3CC=C4C[C@@H](O)CC[C@]4(C)[C@H]3CC[C@]12C` [29-fluorositosterol] the “Relative percent sterol: campesterol” value [1] was 7.8(3) %, the “Relative percent sterol: cholesterol” value [1] was 82.4(8) % and the “Relative percent sterol: desmosterol” value [1] was 5.2(8) %. The “Relative percent sterol: sitosterol” value [1] was 4.6(4) %, the LC50 [2] was 300 µg/mL (≈ 693 µM) and the “Dose for 50% reduction, maximum larval weight (EC50)” value [2] was 110 ppm. For the same compound, the “Dose for 50% reduction, pupation (EC50)” value [2] was 150 ppm.

For `CC(C)[C@@H](/C=C/[C@@H](C)[C@H]1CC[C@H]2[C@@H]3CC=C4C[C@@H](O)CC[C@]4(C)[C@H]3CC[C@]12C)CCF` [29-fluorostigmasterol], the LC50 [2] was 4 µg/mL (≈ 9.29 µM), the “Survivors present for analysis” value ([2]; hornworms fed at 50 ppm) was “No survivors” and the “Dose for 50% reduction, maximum larval weight (EC50)” value [2] was 1 ppm. The “Dose for 50% reduction, pupation (EC50)” value [2] was 1 ppm.
